Where a name gives a salt, the structure may show the parent alone. Where only a bound is given, the exact number is not on record here.

This assay deals with T1, human GlyT1c transporter (Homo sapiens, UniProt P48067).
T1 construct: expressed in transfected cells; host or cells: CHO cells (recombinant; membranes)
T1 sequence (P48067 1-706): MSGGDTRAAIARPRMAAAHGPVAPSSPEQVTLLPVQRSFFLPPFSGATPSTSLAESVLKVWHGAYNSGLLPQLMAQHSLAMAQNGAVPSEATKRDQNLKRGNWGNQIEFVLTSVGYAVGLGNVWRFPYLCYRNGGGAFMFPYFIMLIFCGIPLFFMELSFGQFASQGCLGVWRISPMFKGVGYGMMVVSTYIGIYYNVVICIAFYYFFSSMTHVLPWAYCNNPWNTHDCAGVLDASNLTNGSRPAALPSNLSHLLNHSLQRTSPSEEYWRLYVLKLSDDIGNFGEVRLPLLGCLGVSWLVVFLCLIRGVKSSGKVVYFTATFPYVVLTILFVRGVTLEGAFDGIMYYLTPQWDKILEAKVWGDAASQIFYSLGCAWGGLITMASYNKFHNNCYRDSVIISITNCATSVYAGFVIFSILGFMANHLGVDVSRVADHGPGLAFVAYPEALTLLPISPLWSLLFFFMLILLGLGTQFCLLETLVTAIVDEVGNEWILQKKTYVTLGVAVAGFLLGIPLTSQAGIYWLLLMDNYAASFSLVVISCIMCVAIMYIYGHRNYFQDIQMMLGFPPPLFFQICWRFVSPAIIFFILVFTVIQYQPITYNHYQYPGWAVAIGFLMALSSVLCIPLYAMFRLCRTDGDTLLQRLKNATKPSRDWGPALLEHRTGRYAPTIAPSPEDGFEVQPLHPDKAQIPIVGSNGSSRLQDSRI
The experiment in a line: Radioligand binding assay using recombinant CHO cell membranes expressing human GlyT1. The note with it: values given as upper bounds, read-out: radioligand binding Kiapp. On the procedure: 2. Radioligand Binding Assays Using Recombinant CHO Cell Membranes Expressing Human GlyT1:
Radioligand binding to human GlyT1c transporter-expressing membranes was determined as described in Mezler et al., Molecular Pharmacology 74:1705-1715, 2008.
For the compound `Cn1cnc(S(=O)(=O)NCCOc2ccc3c(c2)C(Cc2ccccc2)C(N2CCC2)CO3)c1` (single isomer, unassigned; isomer 2) [Example 80, cis-1-Methyl-1H-imidazole-4-sulfonic acid [2-(3-azetidin-1-yl-4-benzyl-chroman-6-yloxy)-ethyl]-amide. (Isomer 2)], the Ki is at most 10 nM. Turning to `CCCS(=O)(=O)NCc1ccc2c(c1)[C@H](Cc1ccccc1)[C@H](N)CO2` (relative stereo) [Example 71, cis-Propane-1-sulfonic acid (-3-amino-4-benzyl-chroman-6-ylmethyl)-amide], the Ki was at most 100 nM. The value for `CN[C@@H]1COc2cc(F)c(CNS(=O)(=O)c3cn(C)cn3)cc2[C@@H]1Cc1ccccc1` (relative stereo) [Example 31, cis-1-Methyl-1H-imidazole-4-sulfonic acid (-4-benzyl-7-fluoro-3-methylamino-chroman-6-ylmethyl)-amide] was at most 100 nM; that for `CCS(=O)(=O)NCc1ccc2c(c1)[C@@H](Cc1ccccc1)[C@H](N)CO2` (relative stereo) [Example 24, trans-Ethanesulfonic acid (3-amino-4-benzyl-chroman-6-ylmethyl)-amide] was at most 100 nM.

With `CCS(=O)(=O)NCc1ccc2c(c1)[C@@H](Cc1ccccc1)[C@H](NC)CO2` (relative stereo) [Example 9b, trans-N-{[4-benzyl-3-(methylamino)-3,4-dihydro-2H-chromen-6-yl]methyl}ethanesulfonamide], the Ki is at most 1000 nM. As to `Cc1ccc(S(=O)(=O)NCc2ccc3c(c2)C(Cc2ccccc2)C(N)CO3)s1` (centres unmarked) [Example 53, 5-Methyl-thiophene-2-sulfonic acid (3-amino-4-benzyl-chroman-6-ylmethyl)-amide 2,2,2-trifluoroacetate], the Ki is at most 1000 nM. `CCS(=O)(=O)NCc1cc2c(cc1F)OC[C@@H](NC)[C@H]2Cc1ccccc1` (relative stereo) [Example 27, cis-Ethanesulfonic acid (-4-benzyl-7-fluoro-3-methylamino-chroman-6-ylmethyl)-amide]: the Ki was at most 10 nM.

Regarding `Cn1cnc(S(=O)(=O)NCc2ccc3c(c2)[C@H](Cc2ccccc2)[C@H](NCC2CCC2)CO3)c1` (relative stereo) [Example 41, cis-N-((-4-benzyl-3-((cyclobutylmethyl)amino)chroman-6-yl)methyl)-1-methyl-1H-imidazole-4-sulfonamide 2,2,2-trifluoroacetate], the Ki is at most 10 nM. To `CCCS(=O)(=O)NCCOc1ccc2c(c1)[C@H](Cc1ccccc1)[C@H](N1CCC1)CO2` (relative stereo) [Example 14, cis-Propane-1-sulfonic acid [2-(3-azetidin-1-yl-4-benzyl-chroman-6-yloxy)-ethyl]-amide; trifluoro-acetic acid salt] belongs at most 100 nM. As for `O=S(=O)(CC1CC1)NCc1ccc2c(c1)[C@H](Cc1ccccc1)[C@H](N1CCCC1)CO2` (relative stereo) [Example 65, cis-N-(-4-Benzyl-3-pyrrolidin-1-yl-chroman-6-ylmethyl)-C-cyclopropyl-methanesulfonamide], the Ki was at most 10 nM. To `CC1CCCN(S(=O)(=O)NCc2ccc3c(c2)C(Cc2ccccc2)C(N)CO3)C1` (centres unmarked) [Example 43, 3-Methyl-piperidine-1-sulfonic acid (3-amino-4-benzyl-chroman-6-ylmethyl)-amide 2,2,2-trifluoroacetate] belongs at most 1000 nM. `CCS(=O)(=O)NCc1cc2c(cc1F)OC[C@@H](NC)[C@@H]2Cc1ccccc1` (relative stereo) [Example 28, trans-Ethanesulfonic acid (-4-benzyl-7-fluoro-3-methylamino-chroman-6-ylmethyl)-amide]: the Ki is at most 100 nM.

Consider `CN[C@@H]1COc2ccc(OCCNS(=O)(=O)CC3CC3)cc2[C@H]1Cc1ccccc1` (relative stereo) [Example 4b, trans-N-(2-{[-4-benzyl-3-(methylamino)-3,4-dihydro-2H-chromen-6-yl]oxy}ethyl)-1-cyclopropylmethanesulfonamide], for which the Ki was at most 100 nM. In the case of `Cn1ccc(S(=O)(=O)NCc2ccc3c(c2)C(Cc2ccccc2)C(N)CO3)n1` (centres unmarked) [Example 46, 1-Methyl-1H-pyrazole-3-sulfonic acid (3-amino-4-benzyl-chroman-6-ylmethyl)-amide 2,2,2-trifluoroacetate], the Ki is at most 1000 nM.

With `CCCN[C@@H]1COc2ccc(CNS(=O)(=O)c3cn(C)cn3)cc2[C@@H]1Cc1ccccc1` (relative stereo) [Example 35, cis-N-((-4-benzyl-3-(propylamino)chroman-6-yl)methyl)-1-methyl-1H-imidazole-4-sulfonamide 2,2,2-trifluoroacetate], the Ki is at most 10 nM. The value for `NC1COc2ccc(CNS(=O)(=O)c3ccsc3)cc2C1Cc1ccccc1` (centres unmarked) [Example 49, Thiophene-3-sulfonic acid (3-amino-4-benzyl-chroman-6-ylmethyl)-amide 2,2,2-trifluoroacetate] was at most 1000 nM. The value for `CCS(=O)(=O)NCCOc1ccc2c(c1)[C@H](Cc1ccccc1)[C@H](N1CCC1)CO2` (relative stereo) [Example 18, cis-Ethanesulfonic acid [2-(3-azetidin-1-yl-4-benzyl-chroman-6-yloxy)-ethyl]-amide] was at most 100 nM; that for `CCS(=O)(=O)NCCOc1cc2c(cc1F)OC[C@@H](NC)[C@@H]2Cc1ccccc1` (relative stereo) [Example 30, trans-Ethanesulfonic acid [2-(-4-benzyl-7-fluoro-3-methylamino-chroman-6-yloxy)-ethyl]-amide] was at most 1000 nM; that for `Cc1nn(C)cc1S(=O)(=O)NCc1ccc2c(c1)C(Cc1ccccc1)C(N)CO2` (centres unmarked) [Example 45, 1,3-Dimethyl-1H-pyrazole-4-sulfonic acid (3-amino-4-benzyl-chroman-6-ylmethyl)-amide 2,2,2-trifluoroacetate] was at most 10000 nM.

With `Cn1cc(S(=O)(=O)NCc2ccc3c(c2)[C@H](Cc2ccccc2)[C@H](N2CCCC2)CO3)cn1` (relative stereo) [Example 66, cis-1-Methyl-1H-pyrazole-4-sulfonic acid (-4-benzyl-3-pyrrolidin-1-yl-chroman-6-ylmethyl)-amide], the Ki was at most 10 nM.

Regarding `CC(C)S(=O)(=O)NCc1ccc2c(c1)C(Cc1ccccc1)C(N)CO2` (centres unmarked) [Example 48, Propane-2-sulfonic acid (3-amino-4-benzyl-chroman-6-ylmethyl)-amide 2,2,2-trifluoroacetate], the Ki was at most 1000 nM. Take `N[C@@H]1COc2ccc(CNS(=O)(=O)C3CCC3)cc2[C@H]1Cc1ccccc1` (relative stereo) [Example 70, trans-Cyclobutanesulfonic acid (-3-amino-4-benzyl-chroman-6-ylmethyl)-amide]: the Ki is at most 1000 nM. Regarding `CC(C)CCN[C@@H]1COc2ccc(CNS(=O)(=O)c3cn(C)cn3)cc2[C@@H]1Cc1ccccc1` (relative stereo) [Example 39, cis-N-((-4-benzyl-3-(isopentylamino)chroman-6-yl)methyl)-1-methyl-1H-imidazole-4-sulfonamide 2,2,2-trifluoroacetate], the Ki was at most 10 nM. As to `CN[C@H]1[C@@H](Cc2ccccc2)c2cc(OCCNS(=O)(=O)CC3CC3)ccc2OC1(C)C` (relative stereo) [Example 76, cis-N-[2-(-4-Benzyl-2,2-dimethyl-3-methylamino-chroman-6-yloxy)-ethyl]-C-cyclopropyl-methanesulfonamide], the Ki is at most 1000 nM. `CCCS(=O)(=O)NCc1ccc2c(c1)[C@@H](Cc1ccccc1)[C@H](N)CO2` (relative stereo) [Example 72, trans-Propane-1-sulfonic acid (-3-amino-4-benzyl-chroman-6-ylmethyl)-amide]: the Ki was at most 100 nM. To `CCCS(=O)(=O)NCCOc1ccc2c(c1)[C@@H](Cc1ccccc1)[C@H](NC)CO2` (relative stereo) [Example 3b, trans-N-(2-{[-4-benzyl-3-(methylamino)-3,4-dihydro-2H-chromen-6-yl]oxy}ethyl)propane-1-sulfonamide] belongs at most 1000 nM. To `CN[C@@H]1COc2cc(F)c(CNS(=O)(=O)c3cn(C)cn3)cc2[C@H]1Cc1ccccc1` (relative stereo) [Example 32, trans-1-Methyl-1H-imidazole-4-sulfonic acid (-4-benzyl-7-fluoro-3-methylamino-chroman-6-ylmethyl)-amide] belongs at most 10 nM. To `CCC(C)S(=O)(=O)NCc1ccc2c(c1)C(Cc1ccccc1)C(N)CO2` (centres unmarked) [Example 47, Butane-2-sulfonic acid (3-amino-4-benzyl-chroman-6-ylmethyl)-amide 2,2,2-trifluoroacetate] belongs at most 100 nM; to `CN[C@@H]1COc2ccc(OCCNS(=O)(=O)c3cn(C)cn3)cc2[C@@H]1Cc1ccccc1` (relative stereo) [Example 2a, cis-N-(2-{[-4-Benzyl-3-(methylamino)-3,4-dihydro-2H-chromen-6-yl]oxy}ethyl)-1-methyl-1H-imidazole-4-sulfonamide], at most 10 nM.

(Values after patent US8853196B2, “Aminochromane, aminothiochromane and amino-1,2,3,4-tetrahydroquinoline derivatives, pharmaceutical compositions containing them, and their use in therapy” (AbbVie Deutschland GmbH & Co. KG, priority 2011, dated 2014).)
